Tests used:
[1] = test system: ERK; test: ERK phosphorylation in C6 glial cells (Western blot); type: cell-based, Rat
Method: (§1) Materials and Methods. Cell culture. Rat glioma cells (C6; American Type Culture Collection, Manassas, Va.) were propagated in Dulbecco's Modified Eagle Medium (DMEM; Invitrogen, Carlsbad, Calif.) supplemented with 10% charcoal-stripped fetal bovine serum (FBS; Hyclone, Logan, Utah), and maintained at 37° C. in a humidified environment containing 5% CO2.
(§2) Treatment of cultures. C6 glial cells were treated with either vehicle control (DMSO, 0.1%), dihydrotestosterone (DHT) (Steraloids Inc., Newport, R.I.), or 5α-androstan-17β-ol-3-one-3-o-carboxymethyloxime:BSA (DHT-BSA) (Steraloids Inc.) at the concentrations indicated for 30 minutes, to assess the effects of these hormones on ERK and Akt phosphorylation. […] Inhibition of the classical androgen receptor was achieved using the androgen receptor antagonist, Flutamide (3 μM; Sigma-Aldrich, St. Louis, Mo.), which was applied 30 minutes prior to treatment with the hormone. Inhibition of MEK, the signaling protein upstream of ERK was achieved using U0126 (10 μM; Cell Signaling, Beverly, Mass.), also pre-incubated for a period of 30 minutes prior to hormone administration.
(§3) Western blot analysis. Following treatment with hormone and/or inhibitor, C6 glial cells were harvested into lysis buffer containing protease and phosphatase inhibitors as described previously (25). Following homogenization, samples were centrifuged at 99,000×g for 15 min at 4° C., and the resulting supernatants were evaluated for total protein concentrations using the BioRad DC (Biorad Labs, Hercules, Calif.) protein assay kit [based on the method of Lowry; (26)]. Sample lysates were loaded onto a sodium dodecyl sulfate (SDS), 10% polyacrylamide gel (PAGE), subjected to electrophoresis, and subsequently transferred onto a polyvinylidene difluoride membrane (PVDF; 0.22 μm pore size, BioRad). The membrane was blocked for 6 hrs with a 3% BSA in 0.2% Tween-containing TBS (TBS-T) solution prior to application of the primary antibody. The following primary antibodies were used: for the detection of the androgen receptor, anti-AR (C-19) (1:200; Santa Cruz Biotechnology); for the detection of the phosphorylated form of Akt: rabbit anti-phospho-Akt (Ser473; 1:1000; Cell Signaling, Beverly, Mass.), for the detection of total Akt, anti Akt (1:1000; Cell Signaling); for the detection of the phosphorylated form of ERK1/2, rabbit anti phospho-p44/42 Map Kinase (Thr202/Tyr204, 1:1000; Cell Signaling); for the detection of total ERK1 and ERK2, goat anti-ERK1 (C-16, 1:500)/goat anti-ERK2 (C-14, 1:500; Santa Cruz Biotechnology). Antibody binding to the membrane was detected using a secondary antibody (either goat anti-rabbit or rabbit anti-goat) conjugated to horseradish peroxidase (1:20,000; Pierce, Rockford, Ill.) and visualized using enzyme-linked chemiluminescence (ECL, Amersham, Arlington Heights, Ill.) with the aid of the UVP imaging system. Phospho-Akt and phosphoERK blots were re-probed with anti-Akt or anti ERK1/2 antibodies to ensure equal loading across lanes.
(§4) Statistical Analysis. Densitometric analysis of the Western blots was conducted using the LabWorks Image Acquisition and Analysis Software (UVP Inc., Upland, Calif.). Densitometric data from at least three independent studies was subjected to an analysis of variance (ANOVA), followed by a Tukey's post hoc analysis for the assessment of group differences, and presented as a bar graph depicting the average±S.E.M., using the GraphPad Software (San Diego, Calif.).

[2] = test system: Akt; test: Akt phosphorylation in C6 glial cells (Western blot); type: cell-based, Rat
Method: as §1, §2, §3, §4

[3] = test system: C6 glial cells; test: LDH release / iodoacetic acid (IAA) induced cell death of C6 glial cells; type: cell-based, Rat
Method: Triton-X (Tr-X, 0.9%)-induced lysis of cells served as the positive control for LDH release. Estradiol (E2, 10 μM) treatment of cells served as the positive control for protection against IAA-induced LDH release. Data are representative of two independent studies. The effect shown in FIG. 10, is in sharp contrast to the protective effect of DHT reported previously, and supports further the observation that two, potentially competing, mechanisms regulate the effects of androgens on cell viability. In all studies that used the membrane impermeable androgen, the DHT-BSA preparation was filtered using a 10 kDa nominal cut-off column prior to application of this steroid hormone conjugate, to ensure that the effects of DHT-BSA were not attributed to, or confounded by the presence of free (unconjugated) DHT. Stevis, et al., (Stevis P E, Deecher D C, Suhadolnik L, Mallis L M, Frail D E 1999 Differential effects of estradiol and estradiol-BSA conjugates. Endocrinology 140:5455-8) have described that the commercially available preparation of estradiol-conjugated to BSA (E2-BSA), for example, was contaminated with some free estradiol.

[4] = test system: hippocampal neuron damage; conditions: kainic acid model, reference 33; cited from earlier work
[5] = test system: membrane-associated androgen receptor; test: Flow cytometry binding of DHT-BSA-FITC to the cell surface of live C6 glial cells; parameters: species or system Rat; conditions: 20-fold molar excess of DHT (1 mM) vs DHT-BSA-FITC 50 μM
Method: Flow cytometry. Briefly, C6 glial cells (10^6 cells) were pipetted into a 1.5 ml micro-centrifuge tube, centrifuged at 250×g for 5 minutes and washed twice with 1 ml of PBS. […] In parallel, cells were re-suspended in PBS treated with BSA-FITC (50 μM; Sigma Aldrich), serving as the control for the detection of “non-specific binding”. Following this incubation period, the cells were washed twice in PBS and resuspended in 500 μl of PBS. The labeled C6 glial cells were injected into an EPICS XL-MCL flow cytometer (Beckman Coulter) and analyzed with System 2 software (Beckman Coulter).
In order to determine if DHT-BSA binds to a specific site on the cell surface (indicative of a membrane-associated androgen receptor), the binding of the fluorescently-labeled DHT-BSA (DHT-BSA-FITC) in C6 glial cells was evaluated. Non-“fixed” and non-permeabilized C6 glial cells were treated with DHT-BSA-FITC (50 μM) in the presence or absence of 20-fold molar excess of DHT (1 mM). Incubation of the cells with BSA-FITC alone for 30 min at 4° C. provided a measure of non-specific binding.
To determine if DHT-BSA binds to surface (plasma membrane) receptors, C6 glial cells were treated with DHT-BSA-FITC (50 μM) for 30 min. in the presence/absence of a 20-fold molar excess of DHT (1 mM). Samples were washed and analyzed using flow cytometric analysis.

5α-androstan-17β-ol-3-one-3-o-carboxymethyloxime:BSA [DHT-BSA]
ERK phosphorylation (phospho-ERK levels relative to sham control) ([1]; 0.01, 0.1, 1.0 μM, 30 min, particularly at 100 nM and 1 μM): substantial suppression of ERK phosphorylation | concentration at which the inhibitory effect on ERK phosphorylation becomes evident ([1]; 30 min, C6 glial cells): 0.1 µM | effect on DHT-induced ERK phosphorylation ([1]; co-applied with DHT 10 nM, 30 min, 0.01, 0.1, 1 μM, dose dependent): blocked the effect of DHT | Akt phosphorylation (phospho-Akt levels relative to sham control) ([2]; 0.01, 0.1 and 1 μM, 30 min): dose-dependent suppression of Akt phosphorylation | concentration at which the inhibitory effect on Akt phosphorylation becomes evident ([2]; 30 min, C6 glial cells): 0.1 µM | cellular damage as assessed by LDH release into the media ([3]; increasing concentrations, alone): did not result in cellular damage | toxicity associated with IAA (LDH release) ([3]; with low level insult IAA 10 μM): significantly increased the toxicity associated with IAA

C[C@]12CCC(=O)C[C@@H]1CC[C@@H]1[C@@H]2CC[C@]2(C)[C@@H](O)CC[C@@H]12 [DHT, dihydrotestosterone]
ERK phosphorylation at higher concentrations [1]: did not result in an increase in ERK phosphorylation | increase in the phosphorylation of ERK [1]: 2.5 fold | Akt phosphorylation (phospho-Akt levels) [2]: induced an increase in Akt phosphorylation | amount of hippocampal neuron damage [4]: reduce the amount of hippocampal neuron damage | displacement of DHT-BSA-FITC labeling [5]: displaced

C[C@]12CCC(=NOCC(=O)O)C[C@@H]1CC[C@@H]1[C@@H]2CC[C@]2(C)[C@@H](O)CC[C@@H]12 [DHT:CMO, 5α-androstan-17β-ol-3-one-3-o-carboxymethyloxime]
ERK phosphorylation by CMO-modified DHT ([1]; 0.01, 0.1, 1 μM, 30 min): did not alter the ability of the androgen to elicit ERK phosphorylation

CC(C)C(=O)Nc1ccc([N+](=O)[O-])c(C(F)(F)F)c1 [Flutamide]
effect of AR antagonist on DHT-induced Akt phosphorylation ([2]; Flutamide 3 μM): failed to inhibit

N#CC(=C(/N)Sc1ccccc1N)/C(C#N)=C(\N)Sc1ccccc1N [U0126]
effect of MEK1/2 inhibitor on DHT-induced ERK phosphorylation [1]: blocked

Pertussis toxin
effect of Gi/o inhibitor on DHT-BSA-mediated suppression of ERK phosphorylation ([1]; 50 μM, data not shown): failed to prevent | effect of Gi/o inhibitor on DHT-BSA-mediated suppression of Akt phosphorylation ([2]; 50 μM, data not shown): failed to prevent
